# Measurements published in patent US5688824A, “Use of leflunomide to prevent or control xenograft rejection” (priority 1996, dated 1997).
# Read-outs that look alike come from different tables or passages of the source.
# Legend:
# [1] = test system: renal allograft; conditions: BN-LEW renal transplant; cited from earlier work
# [2] = test system: rejection of concordant hamster to rat cardiac xenografts; conditions: earlier work, cited from earlier work
# [3] = humans; cited from earlier work
# [4] = test system: murine B-cell; conditions: in vitro; cited from earlier work
# [5] = test system: murine T-cell; conditions: in vitro; cited from earlier work
# [6] = test system: heterotopic small intestinal transplantation; conditions: cited from earlier work
# [7] = test system: cGvH disease or SLE; conditions: mouse, U.S. Pat. No. 4,965,276; cited from earlier work
# [8] = test system: human peripheral blood lymphocytes; test: one-way mixed lymphocyte reaction (3H-thymidine uptake); assay type: cell-based
# Experimental: The effect of varying concentrations of leflunomide product (A771726, Hoechst AG Werk Albert, Wiesbaden, Germany) in combination with varying concentrations of rapamycin (Wyeth-Ayerst Research, Rouses Point, N.Y.) was evaluated in a one-way mixed lymphocyte reaction (MLR) performed according to Kahan et al., Transplantation, 51:232 (1991). Briefly, human peripheral blood lymphocytes (2×10^5 per well) were incubated with an equal number of gamma-irradiated, allogeneic peripheral blood lymphocytes for 5 days in the presence of varying concentrations of leflunomide and rapamycin. The lymphocytes were then incubated for 16 to 20 hours with 1 μCi/well of ^3 H-thymidine. The amount of ^3 H-thymidine uptake was measured, and the percent inhibition of proliferation by each drug or drug combination was calculated. Data from two trials appear below in Tables 4 and 5.
# [9] = test system: SLE in MRL/lpr mice; conditions: at the end of 10 weeks, mice with elevated urine protein; cited from earlier work
smiles,measurement,setting,value
Cn1cnc([N+](=O)[O-])c1Sc1ncnc2nc[nH]c12 [azathioprine],protection,[1],neither azathioprine nor prednisolone offered any protection
O=P1(N(CCCl)CCCl)NCCCO1 (stereo not shown) [Cytoxan],control of xenograft rejection,[2]; Cytoxan,can completely control rejection of xenografts
same,toxicity of required dose,[2]; Cytoxan,lethally toxic range
Nc1ccc(C(F)(F)F)cc1 [trifluoromethyl aniline],side effect of accumulation of the metabolite,[3],Heinz-body hemolytic anemia
C=CC[C@@H]1/C=C(\C)C[C@H](C)C[C@H](OC)[C@H]2O[C@@](O)(C(=O)C(=O)N3CCCC[C@H]3C(=O)O[C@H](/C(C)=C/[C@@H]3CC[C@@H](O)[C@H](OC)C3)[C@H](C)[C@@H](O)CC1=O)[C@H](C)C[C@@H]2OC [FK-506],effect on xenograft survival,[2]; hamster to rat cardiac xenograft,limited effect on xenograft survival even at lethal doses
"C/C(O)=C(\C#N)C(=O)Nc1ccc(C(F)(F)F)cc1 [A771726, N-(4-trifluoromethylphenyl)-2-cyano-3-hydroxycrotonamide]",inhibition of murine B-cell proliferation,[4],more potent inhibitor of B-cell proliferation
same,inhibition of murine T-cell proliferation,[5],inhibit murine B-cell and T-cell proliferation
same,survival of recipients,[6]; 5 mg/kg/day by gavage for 7 days,15.0 ± 2.1 days
same,survival of recipients,[6]; 5 mg/kg/day by gavage for 14 days,21.2 ± 1.6 days
same,survival of recipients,[6]; 5 mg/kg/day by gavage for 28 days,33.8 ± 2.4 days
same,"glomerulonephritis, anti-dsDNA titer, GvH index, T-lymphocyte proliferative ability",[7],"prevented development of glomerulonephritis, reduced anti-dsDNA titer, decreased the GvH index (a measure of relative spleen enlargement), and improved the diminished proliferative ability of T-lymphocytes"
same,inhibition of development of cGvH disease or SLE,[7],effective in inhibiting the development of cGvH disease or SLE
same,% Inhibition of Lymphocyte Proliferation,"[8]; 12.50 μM Lef, 0.00 nM Rapa, Table 4",15.19%
same,% Inhibition of Lymphocyte Proliferation,"[8]; 12.50 μM Lef, 0.00 nM Rapa, Table 5",21.84%
same,% Inhibition of Lymphocyte Proliferation,"[8]; 25.00 μM Lef, 0.00 nM Rapa, Table 4",37.35%
same,% Inhibition of Lymphocyte Proliferation,"[8]; 25.00 μM Lef, 0.00 nM Rapa, Table 5",38.40%
same,% Inhibition of Lymphocyte Proliferation,"[8]; 50.00 μM Lef, 0.00 nM Rapa, Table 4",56.71%
same,% Inhibition of Lymphocyte Proliferation,"[8]; 50.00 μM Lef, 0.00 nM Rapa, Table 5",68.63%
C[C@]12C=CC(=O)C=C1CC[C@@H]1[C@@H]2[C@@H](O)C[C@@]2(C)[C@H]1CC[C@]2(O)C(=O)CO [prednisolone],animals still alive,[9],40%
same,protection,[1],neither azathioprine nor prednisolone offered any protection
CO[C@H]1C[C@@H]2CC[C@@H](C)[C@@](O)(O2)C(=O)C(=O)N2CCCC[C@H]2C(=O)O[C@H]([C@H](C)C[C@@H]2CC[C@@H](O)[C@H](OC)C2)CC(=O)[C@H](C)/C=C(\C)[C@@H](O)[C@@H](OC)C(=O)[C@H](C)C[C@H](C)/C=C/C=C/C=C/1C [rapamycin],% Inhibition of Lymphocyte Proliferation,"[8]; 0.010 nM Rapa, 0.00 μM Lef, Table 4",27.12%
same,% Inhibition of Lymphocyte Proliferation,"[8]; 0.010 nM Rapa, 0.00 μM Lef, Table 5",4.78%
same,% Inhibition of Lymphocyte Proliferation,"[8]; 0.050 nM Rapa, 0.00 μM Lef, Table 4",38.78%
same,% Inhibition of Lymphocyte Proliferation,"[8]; 0.050 nM Rapa, 0.00 μM Lef, Table 5",37.75%
same,% Inhibition of Lymphocyte Proliferation,"[8]; 0.100 nM Rapa, 0.00 μM Lef, Table 4",57.42%
same,% Inhibition of Lymphocyte Proliferation,"[8]; 0.100 nM Rapa, 0.00 μM Lef, Table 5",51.71%
same,% Inhibition of Lymphocyte Proliferation,"[8]; 1.00 nM Rapa, 0.00 μM Lef, Table 4",89.25%
same,% Inhibition of Lymphocyte Proliferation,"[8]; 1.00 nM Rapa, 0.00 μM Lef, Table 5",80.83%
